Laboratory results published in patent US20240287046A1, “COMPOUNDS AND RADIOLIGANDS FOR TARGETING NEUROTENSIN RECEPTOR AND USES THEREOF” (Full-Life Technologies HK Limited, priority 2022, published 2024).

How the values were obtained:
[1] = tested on: ASPC-1 tumor-bearing mice; experiment: Biodistribution of radionuclide labeled complexes in ASPC-1 tumor-bearing mice; format: in vivo, BALB/c nude mice; conditions: ^177Lu-labeled complex
Experimental: The BALB/c nude mice (Charles River, Beijing) were utilized to establish the xenografted model for biodistribution study. All animal care and experimental procedure were performed by following the animal protocols approved by the ethics committee of China Institute of Radiation Protection.
Briefly, each mouse was inoculated with approximately 4×10^6 ASPC-1 cells (human pancreatic cancer cell line) or HT-29 cells (human colorectal adenocarcinoma cell line) expressing human NTSR-1 by subcutaneous injection at rear flank. After inoculation, the xenografted tumors were allowed to grow for ˜2-4 weeks till the tumor weight reached to about 0.05 to 0.50 g (0.20 g in average).
Biodistribution studies were performed by administrating the radionuclide labeled test compound at a dose of ˜30-50 μCi (100 μL in 0.9% NaCl, ˜1.11-1.85 MBq, with specific activity 30-250 μCi/nmol) to each animal through tail vein injection.
At different time points after the administration, the mice treated with each compound were euthanized. The tissues and organs of the animals in each group were collected, excised, weighed, and analyzed in a PerkinElmer 2480 WIZARD2γ counter, and the percent injected dose (% ID) and % ID/g of each organ or tissue were calculated.

human NTSR-1 [2] = target: T1, human NTSR-1 (Homo sapiens (Human), UniProt P30989); experiment: radioligand competitive binding assay using ^177Lu labeled C-1 as reference radioligand; conditions: for Relative Binding Affinity: Mean IC50 of C-1/Mean IC50 of the test compound; for IC50: Nonlin fit, single assay, HT-29 cells
T1 sequence (P30989 whole entry): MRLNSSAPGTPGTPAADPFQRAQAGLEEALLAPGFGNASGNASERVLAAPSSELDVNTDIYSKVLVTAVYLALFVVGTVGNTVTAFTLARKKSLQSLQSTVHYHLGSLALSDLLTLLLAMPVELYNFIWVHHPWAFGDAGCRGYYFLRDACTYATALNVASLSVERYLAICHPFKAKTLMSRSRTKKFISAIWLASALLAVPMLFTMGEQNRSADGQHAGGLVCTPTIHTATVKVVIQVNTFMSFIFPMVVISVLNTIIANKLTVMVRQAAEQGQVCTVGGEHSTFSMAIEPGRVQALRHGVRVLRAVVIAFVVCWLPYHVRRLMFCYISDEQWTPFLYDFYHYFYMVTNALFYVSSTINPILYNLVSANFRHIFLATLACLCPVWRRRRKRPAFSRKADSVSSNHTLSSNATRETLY
Experimental: The binding affinities of test compounds were determined by a radioligand competitive binding assay using ^177Lu labeled C-1 as the reference radioligand.
Briefly, 100 μL HT-29 cells expressing human NTSR-1 at a density of 1˜2×10^6 cells/mL were mixed with binding buffer (RPMI-1640 medium supplemented with 0.25% bovine serum albumin) in each well of the 96-well filter plate (Millipore). Then the cells in each well were incubated with ^177Lu—C-1 (0.55 μCi/well) and the test compound under 37° C. for 1 hr (n=3). After incubation, unbound ^177Lu—C-1 and the test compound in each well was removed by filtration using a Multiscreen vacuum manifold (Millipore) and the cells were further rinsed with the binding buffer for 5 times. The cells from each well were then collected and radioactivity of the cells in each well was individually measured by y counter (2480 WIZARD2, PerkinElmer). The best-fit IC50 value of test compounds (inhibitory concentration when 50% of the bound ^177Lu—C-1 on cells were displaced) were calculated by fitting the data with nonlinear regression using GraphPad Prism 8.0.1.

human NTSR-1 [3] = target: T1, human NTSR-1; experiment: FLIPR assay, inhibition of Neurotensin-induced intracellular-calcium mobilization; format: cell-based; conditions: for IC50 compared to comparator compound C-2: FLIPR assay; for IC50: HEK293 cells stably expressing human NTSR-1, mean, read-out: IC50 (nM) in FLIPR Assays
Experimental: Binding affinities of the representative compounds were also evaluated by FLIPR assay. Neurotensin receptor 1 belongs to the G-protein coupled receptors (GPCR) family. Activation of NTSR-1 by its ligand Neurotensin can induce intracellular-calcium mobilization. In FLIPR assay, the test compound and Neurotensin were incubated together with cells expressing NTSR-1 to measure inhibition of the intracellular-calcium mobilization by the test compound so that to evaluate its binding affinity.
Briefly, HEK293 cells stably expressing human NTSR-1 were plated in 384-well plates. 20 ul cell suspension at a concentration of 10×10^5 per ml was seeded in each well and incubated at 37° C. 5% CO2 overnight. Then the cells in each well were mixed with 20 ul probenecid assay buffer, 20 ul 8 uM Fluo-4 Direct™ Loading Buffer, 6×EC80 of Neurotensin and 10 μl of the diluted test compound, and incubated at 37° C. 5% CO2 for 50 min followed by incubation at room temperature for 10 min. The plate was then subject to FLIPR analysis.

[4] = read-out: LogIC50 Mean (converted)

| Structure (SMILES) | AUC (0-72 h) ratio Tumor/Blood [1] | AUC (0-72 h) ratio Tumor/Kidney [1] | AUC (0-72 h) ratio Tumor/Liver [1] | AUC (0-72 h) ratio Tumor/Lung [1] | Relative Binding Affinity (human NTSR-1 [2]) | IC50 (human NTSR-1 [2]; read-out: IC50 (nM) Mean) [nM] | IC50 (human NTSR-1 [2]; [4]) [nM] | binding affinity compared to comparator compound C-1 or C-3 (human NTSR-1 [2]; single radioligand competitive binding assay) | IC50 compared to comparator compound C-2 (human NTSR-1 [3]) | IC50 (human NTSR-1 [3]) [nM] | binding affinity vs 3BP-227 (C-2) on removal of the tertiary amine motif in the linker (human NTSR-1 [2]) | improvement of potency vs SR142948 (C-3) (human NTSR-1 [2]; removal of the carbonyl group from the amide group) [fold] |
| --- | --- | --- | --- | --- | --- | --- | --- | --- | --- | --- | --- | --- |
| COc1cccc(OC)c1-c1cc(C(=O)NC2(C(=O)O)C3CC4CC(C3)CC2C4)nn1-c1ccc(N(C)CCCN(C)CCCN(C)C(=O)CN2CCN(CC(=O)O)CCN(CC(=O)O)CCN(CC(=O)O)CC2)cc1C(C)C (centres unmarked) [Compound I-1, 2,2′,2″-(10-(2-((3-((3-((4-(3-((2-carboxyadamantan-2-yl)carbamoyl)-5-(2,6-dimethoxyphenyl)-1H-pyrazol-1-yl)-3-isopropylphenyl)(methyl)amino)propyl)(methyl)amino)propyl)(methyl)amino)-2-oxoethyl)-1,4,7,10-tetraazacyclododecane-1,4,7-triyl)triacetic acid] | 36.5 | 5.6 | 12.8 | 39.3 | 82.6 | 0.465 | 0.465 | higher binding affinity |  |  |  |  |
| COc1cccc(OC)c1-c1cc(C(=O)NC2(C(=O)O)C3CC4CC(C3)CC2C4)nn1-c1ccc(N(CCCN(C)C)C(=O)COCCOCCNC(=O)CN2CCN(CC(=O)O)CCN(CC(=O)O)CCN(CC(=O)O)CC2)cc1C(C)C (centres unmarked) [Compound I-6] |  |  |  |  | 3.1 |  |  |  | lower IC50 | 16.2 |  |  |
| COc1cccc(OC)c1-c1cc(C(=O)NC2(C(=O)O)C3CC4CC(C3)CC2C4)nn1-c1ccc(N(C)CCCN(C)CCCN(C)C(=O)COCCOCCNC(=O)CN2CCN(CC(=O)O)CCN(CC(=O)O)CCN(CC(=O)O)CC2)cc1C(C)C (centres unmarked) [Compound I-4, 2,2′,2″-(10-(2-(4-(3-((2-carboxyadamantan-2-yl)carbamoyl)-5-(2,6-dimethoxyphenyl)-1H-pyrazol-1-yl)-3-isopropylphenyl)-6,10-dimethyl-11,20-dioxo-13,16-dioxa-2,6,10,19-tetraazahenicosan-21-yl)-1,4,7,10-tetraazacyclododecane-1,4,7-triyl)triacetic acid] |  |  |  |  | 538.2 |  |  |  |  |  |  |  |
| COc1cccc(OC)c1-c1cc(C(=O)NC2(C(=O)O)C3CC4CC(C3)CC2C4)nn1-c1ccc(NCCCN(C)C)cc1C(C)C (centres unmarked) [II-1, 2-(5-(2,6-dimethoxyphenyl)-1-(4-((3-(dimethylamino)propyl)amino)-2-isopropylphenyl)-1H-pyrazole-3-carboxamido)adamantane-2-carboxylic acid] |  |  |  |  | 107.6 |  |  |  |  |  |  | ≥ 10 |
| COc1cccc(OC)c1-c1cc(C(=O)NC2(C(=O)O)C3CC4CC(C3)CC2C4)nn1-c1ccc(NCCCCCN(C)C)cc1C(C)C (centres unmarked) [II-3, 2-(5-(2,6-dimethoxyphenyl)-1-(4-((5-(dimethylamino)pentyl)amino)-2-isopropylphenyl)-1H-pyrazole-3-carboxamido)adamantane-2-carboxylic acid] |  |  |  |  | 535.2 |  |  |  |  |  |  |  |

Further lines, results first:

| AUC (0-72 h) ratio Tumor/Blood [1] | AUC (0-72 h) ratio Tumor/Kidney [1] | AUC (0-72 h) ratio Tumor/Liver [1] | AUC (0-72 h) ratio Tumor/Lung [1] | Relative Binding Affinity (human NTSR-1 [2]) | IC50 (human NTSR-1 [2]; read-out: IC50 (nM) Mean) [nM] | IC50 (human NTSR-1 [2]; [4]) [nM] | binding affinity compared to comparator compound C-1 or C-3 (human NTSR-1 [2]; single radioligand competitive binding assay) | IC50 compared to comparator compound C-2 (human NTSR-1 [3]) | IC50 (human NTSR-1 [3]) [nM] | binding affinity vs 3BP-227 (C-2) on removal of the tertiary amine motif in the linker (human NTSR-1 [2]) | improvement of potency vs SR142948 (C-3) (human NTSR-1 [2]; removal of the carbonyl group from the amide group) [fold] | Structure (SMILES) |
| --- | --- | --- | --- | --- | --- | --- | --- | --- | --- | --- | --- | --- |
| 10.0 | 14.2 | 16.7 | 48.3 | 146.4 |  |  |  | lower IC50 | 26.9 |  |  | COc1cccc(OC)c1-c1cc(C(=O)NC2(C(=O)O)C3CC4CC(C3)CC2C4)nn1-c1ccc(NC(=O)CCCN(C)CCCN(C)C(=O)CN2CCN(CC(=O)O)CCN(CC(=O)O)CCN(CC(=O)O)CC2)cc1C(C)C (centres unmarked) [Compound I-5, 2,2′,2″-(10-(2-((3-((4-((4-(3-((2-carboxyadamantan-2-yl)carbamoyl)-5-(2,6-dimethoxyphenyl)-1H-pyrazol-1-yl)-3-isopropylphenyl)amino)-4-oxobutyl)(methy)amino)propyl)(methyl)amino)-2-oxoethyl)-1,4,7,10-tetraazacyclododecane-1,4,7-triyl)triacetic acid] |
| 58.0 | 15.4 | 41.1 | 31.3 | 28.3 |  |  |  |  |  | not compromise the binding affinity |  | COc1cccc(OC)c1-c1cc(C(=O)NC2(C(=O)O)C3CC4CC(C3)CC2C4)nn1-c1ccc(NCCOCCOCCNC(=O)CN2CCN(CC(=O)O)CCN(CC(=O)O)CCN(CC(=O)O)CC2)cc1C(C)C (centres unmarked) [Compound I-10, 2,2′,2″-(10-(2-((2-(2-(2-((4-(3-((2-carboxyadamantan-2-yl)carbamoyl)-5-(2,6-dimethoxyphenyl)-1H-pyrazol-1-yl)-3-isopropylphenyl)amino)ethoxy)ethoxy)ethyl)amino)-2-oxoethyl)-1,4,7,10-tetraazacyclododecane-1,4,7-triyl)triacetic acid] |
| 12.5 | 10.4 | 10.6 | 39.4 |  | 0.559 | 0.558 |  |  |  |  |  | COc1cccc(OC)c1-c1cc(C(=O)NC2(C(=O)O)C3CC4CC(C3)CC2C4)nn1-c1ccc(NCCCN(C)CCCNC(=O)CN2CCN(CC(=O)O)CCN(CC(=O)O)CCN(CC(=O)O)CC2)cc1C(C)C (centres unmarked) [Compound I-2, 2,2′,2″-(10-(2-((3-((3-((4-(3-((−2-carboxyadamantan-2-yl)carbamoyl)-5-(2,6-dimethoxyphenyl)-1H-pyrazol-1-yl)-3-isopropylphenyl)amino)propyl)(methyl)amino)propy)amino)-2-oxoethyl)-1,4,7,10-tetraazacyclododecane-1,4,7-triyl)triacetic acid] |
| 34.4 | 18.1 | 23.1 | 40.1 | 156.7 |  |  |  | lower IC50 | 11.7 |  |  | COc1cccc(OC)c1-c1cc(C(=O)NC2(C(=O)O)C3CC4CC(C3)CC2C4)nn1-c1ccc(OCCCN(C)CCCN(C)C(=O)CN2CCN(CC(=O)O)CCN(CC(=O)O)CCN(CC(=O)O)CC2)cc1C(C)C (centres unmarked) [Compound I-7, 2,2′,2″-(10-(2-((3-((3-(4-(3-((2-carboxyadamantan-2-yl)carbamoyl)-5-(2,6-dimethoxyphenyl)-1H-pyrazol-1-yl)-3 isopropylphenoxy)propyl)(methyl)amino)propyl)(methyl)amino)-2-oxoethyl)-1,4,7,10-tetraazacyclododecane-1,4,7-triyl)triacetic acid] |
